The test system of this test is recurrent glioblastoma (WHO grade IV). The conditions noted are these: human, in vivo.

With `O=NN(CCCl)C(=O)NC1CCCCC1` [lomustine], the “clinical and imaging response after one cycle” value was “significant clinical and imaging response”; the “imaging and clinical response after first six weeks of therapy (one cycle), both of two patients” value is “significant imaging and clinical improvement”; the “response on brain scans after chemotherapy was added to Avastin” value was “Response”; the “time disease free (complete tumor disappearance) post PVSRIPO infusion” value was above 32 months.
